Measurements taken from US5519028A, “Antiviral preparations” (priority 1992, dated 1996).

What was measured:
Assay type in all cases: cell-based, human
interleukin-6 = assay: IL-6 production by monocytes of HIV-positive donors
Method: (§1) The effects of flavopereirine on the production of primary (IL-1β and TNF-α) and secondary (IL-6) cytokines by monocytes was also tested. The adhesive monocytes used were taken from the blood of two types of donors:
HIV-positive donors from medical consultations. These individuals were in the early stages of HIV infection and, at the moment of taking the blood, were not undergoing any treatment. The risk factors involved were intravenous drug abuse for six of the donors, sexual transmission for three and blood transfusion (in Zaire) for one patient. No correlation was found between the risk factors and the results of the experiments.
The response of the monocytes taken from the various HIV-positive donors was tested in terms of spontaneous response. The quantities of cells received were low (the donors were not affected by cytapheresy), and the experiments were therefore limited by the number of cells available.
Interleukin-4 was used at the same time as flavopereirine H, since it has been shown prior to these experiments that this cytokine blocks the spontaneous production of interleukin-6 in certain HIV-positive patients.
In five cases, […] was used for comparison, since this, too, blocks the production of IL-6 in normal monocytes stimulated by LPS.

IL-1β = IL-1β production by monocytes of normal donors; settings: 1000 U/ml, 48 hours; except donor #10
Method: as §1
(§2) Normal donors--voluntary blood donors who attended the blood bank of the Pitie-Salpetriere Hospital, Paris, France; and
(§3) Product H was not used in these experiments at a rate of more than 20 μg/ml water, since above this rate, net toxicity could have been produced.

TNF-α = TNF-α production by monocytes of normal donors; settings: 1000 U/ml, 48 hours
Method: as §1, §2, §3

Molecule: Interleukin-9: blocks the production of IL-6 in normal monocytes stimulated by LPS
- compound effect with interleukin-4 on IL-6 production (interleukin-6; combined with interleukin-4, five cases): never has a compound effect to that of interleukin-4
- maximum inhibition of spontaneous production of IL-6 (interleukin-6; five cases): ≤ 50%

Molecule: interferon: stimulation of monocytes over a period of 48 hours with interferon (1000 U/ml) [reference compound]
- production of primary cytokines (IL-1β) (IL-1β): did not cause any production of primary cytokines, except in donor #10 in 1L-1β
- production of primary cytokines (TNF-α) (TNF-α): did not cause any production of primary cytokines

B1: Interleukin-4: cytokine that blocks the spontaneous production of interleukin-6 in certain HIV-positive patients (protein, UniProt P05112 25-153, looked up)
Interleukin-4: HKCDITLQEIIKTLNSLTEQKTLCTELTVTDIFAASKNTTEKETFCRAATVLRQFYSHHEKDTRCLGATAQQFHRHKQLIRFLKRLDRNLWGLAGLNSCPVKEANQSTLENFLERLKTIMREKYSKCSS
- inhibition of production of IL-6 (interleukin-6; alone, never total, p<0.05): inhibited the production of IL-6, but this inhibition was never total
